In the supplement of paper PMC10307832:

Columns and labels:
Assay in all cases: relative viability (nuclei count vs DMSO), 5 days (fraction); higher = more cells survive
[1] = compound: O=C(c1cc(Cc2n[nH]c(=O)c3ccccc23)ccc1F)N1CCN(C(=O)C2CC2)CC1 [Olaparib] + N=C(N)NC(=N)NCCc1ccccc1 [Phenformin] (partner 250 µM)
Summary of the method: (§1)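 Five library-drug doses in √10 steps were combined with a fixed anchor-drug dose, or a single drug was given alone, by pin tool to lung cancer cell lines in 1536-well plates the day after seeding. Nuclei were stained and counted after 5 days. Relative viability is the nuclei count in treated wells over that in vehicle wells, taken as the median of duplicate plates.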

[2] = compound: CC(C)C[C@H](NC(=O)[C@H](CCc1ccccc1)NC(=O)CN1CCOCC1)C(=O)N[C@@H](Cc1ccccc1)C(=O)N[C@@H](CC(C)C)C(=O)[C@@]1(C)CO1 [Carfilzomib] + O=C(c1cc(Cc2n[nH]c(=O)c3ccccc23)ccc1F)N1CCN(C(=O)C2CC2)CC1 [Olaparib] (partner 8 µM)
Summary of the method: as §1

[3] = compound: O=C(c1cc(Cc2n[nH]c(=O)c3ccccc23)ccc1F)N1CCN(C(=O)C2CC2)CC1 [Olaparib] + Cc1nc(Nc2ncc(C(=O)Nc3c(C)cccc3Cl)s2)cc(N2CCN(CCO)CC2)n1 [Dasatinib] (partner 0.075 µM)
Summary of the method: as §1

[4] = compound: CC(C)C[C@H](NC(=O)[C@H](CCc1ccccc1)NC(=O)CN1CCOCC1)C(=O)N[C@@H](Cc1ccccc1)C(=O)N[C@@H](CC(C)C)C(=O)[C@@]1(C)CO1 [Carfilzomib] + Cc1cc(Nc2cc(N3CCN(C)CC3)nc(Sc3ccc(NC(=O)C4CC4)cc3)n2)n[nH]1 [Tozasertib] (partner 0.1 µM)
Summary of the method: as §1

| Cell Line | relative viability ([1]; first compound 0.08 µM) | relative viability ([1]; first compound 0.253 µM) | relative viability ([1]; first compound 2.53 µM) | relative viability ([1]; first compound 8 µM) | relative viability ([2]; first compound 0.001 µM) | relative viability ([2]; first compound 0.003162 µM) | relative viability ([2]; first compound 0.01 µM) | relative viability ([2]; first compound 0.03162 µM) | relative viability ([2]; first compound 0.1 µM) | relative viability ([3]; first compound 0.08 µM) | relative viability ([3]; first compound 0.253 µM) | relative viability ([3]; first compound 2.53 µM) | relative viability ([3]; first compound 8 µM) | relative viability ([4]; first compound 0.001 µM) | relative viability ([4]; first compound 0.003162 µM) | relative viability ([4]; first compound 0.01 µM) | relative viability ([4]; first compound 0.03162 µM) | relative viability ([4]; first compound 0.1 µM) |
| --- | --- | --- | --- | --- | --- | --- | --- | --- | --- | --- | --- | --- | --- | --- | --- | --- | --- | --- |
| NCI-H2085 | 0.837 | 0.69 | 0.682 | 0.625 | 0.771 | 0.739 | 0.749 | 0.372 | 0.244 | 0.292 | 0.225 | 0.241 | 0.226 | 0.825 | 0.828 | 0.786 | 0.269 | 0.385 |
| LU99A | 0.853 | 0.777 | 0.666 | 0.556 | 0.287 | 0.233 | 0.276 | 0.168 | 0.137 | 0.624 | 0.467 | 0.506 | 0.228 | 0.282 | 0.286 | 0.326 | 0.306 | 0.123 |
| NCI-H1944 | 0.189 | 0.184 | 0.202 | 0.192 | 0.438 | 0.513 | 0.441 | 0.374 | 0.187 | 0.177 | 0.215 | 0.178 | 0.149 | 0.248 | 0.236 | 0.253 | 0.265 | 0.16 |
| NCI-H3122 | 0.425 | 0.362 | 0.344 | 0.306 | 0.654 | 0.611 | 0.609 | 0.452 | 0.269 | 0.463 | 0.823 | 0.873 | 0.696 | 0.371 | 0.428 | 0.418 | 0.38 | 0.132 |
| LCLC-97TM1 | 0.439 | 0.414 | 0.428 | 0.429 | 0.367 | 0.527 | 0.318 | 0.0498 | 0.0493 | 0.871 | 0.789 | 0.857 | 0.776 | 0.25 | 0.263 | 0.215 | 0.205 | 0.107 |
| LXF-289 | 0.555 | 0.477 | 0.547 | 0.526 | 1.09 | 1.19 | 1.07 | 0.0687 | 0.0894 | 0.217 | 0.172 | 0.196 | 0.171 | 0.186 | 0.186 | 0.104 | 0.0498 | 0.0494 |
| HCC-78 | 0.72 | 0.66 | 0.756 | 0.714 | 0.733 | 0.881 | 0.844 | 0.552 | 0.233 | 0.451 | 0.31 | 0.426 | 0.331 | 0.356 | 0.61 | 0.401 | 0.358 | 0.287 |
| NCI-H2405 | 0.432 | 0.373 | 0.388 | 0.426 | 0.836 | 0.946 | 0.915 | 0.699 | 0.211 | 0.192 | 0.181 | 0.204 | 0.217 |  | 0.814 | 0.828 | 0.757 | 0.267 |
| NCI-H727 | 0.634 | 0.662 | 0.556 | 0.396 | 0.705 | 0.751 | 0.859 | 0.62 | 0.242 | 0.439 | 0.405 | 0.469 | 0.324 | 0.708 | 0.754 | 0.602 | 0.438 | 0.378 |
| LC-2-ad | 0.75 | 0.508 | 0.533 | 0.607 | 0.673 | 0.715 | 0.667 | 0.637 | 0.237 | 0.99 | 0.454 | 0.472 | 0.491 | 0.466 | 0.453 | 0.498 | 0.279 | 0.24 |
